Results from patent US12479840B2, “HMG-CoA reductase degradation inducing compound” (Uppthera, priority 2020, dated 2025).

target: T1, HMG-CoA reductase (Homo sapiens, UniProt P04035); assay: HMG-CoA reductase (HMGCR) degradation in HepG2 cells by western blotting; format: cell-based; conditions: treated for 18 hours, ratio of HMG-CoA reductase to GAPDH, read-out: DC50
T1 construct: endogenous in cells; host or cells: HepG2 (Korea Cell Line Bank)
T1 sequence (P04035 1-888): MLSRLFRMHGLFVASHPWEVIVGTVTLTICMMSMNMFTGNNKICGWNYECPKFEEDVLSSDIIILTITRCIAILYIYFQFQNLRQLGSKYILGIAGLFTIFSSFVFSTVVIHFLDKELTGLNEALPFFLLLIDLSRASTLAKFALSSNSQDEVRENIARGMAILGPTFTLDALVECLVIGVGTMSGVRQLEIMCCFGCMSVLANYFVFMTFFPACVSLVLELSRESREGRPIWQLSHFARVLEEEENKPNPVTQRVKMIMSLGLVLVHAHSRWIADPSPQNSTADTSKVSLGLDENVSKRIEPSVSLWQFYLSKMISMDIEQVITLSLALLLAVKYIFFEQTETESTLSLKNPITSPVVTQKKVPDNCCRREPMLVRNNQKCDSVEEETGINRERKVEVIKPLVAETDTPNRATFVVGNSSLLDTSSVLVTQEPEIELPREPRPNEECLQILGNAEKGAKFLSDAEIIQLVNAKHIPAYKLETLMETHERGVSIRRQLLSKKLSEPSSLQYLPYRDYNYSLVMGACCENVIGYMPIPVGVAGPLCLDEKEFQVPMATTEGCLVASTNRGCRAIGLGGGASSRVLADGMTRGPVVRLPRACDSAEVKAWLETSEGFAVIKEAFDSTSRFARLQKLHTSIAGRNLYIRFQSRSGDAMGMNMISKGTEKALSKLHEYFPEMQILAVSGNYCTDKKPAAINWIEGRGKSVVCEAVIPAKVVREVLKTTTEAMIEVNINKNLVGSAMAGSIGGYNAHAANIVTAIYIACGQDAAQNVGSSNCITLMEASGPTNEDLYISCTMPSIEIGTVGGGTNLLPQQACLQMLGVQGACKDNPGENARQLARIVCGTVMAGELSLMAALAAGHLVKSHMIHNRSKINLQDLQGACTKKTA
Summary of the method: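 Western blot read-out: HMGCR protein probed (1:500, 16 hours at 4° C) alongside GAPDH loading control on 15 μg BCA-normalised RIPA lysates. Lysates came from HepG2 cells (P105–P110) exposed for 18 hours to a 10-point, three-fold series starting at 3 μM.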

C[C@H]1C=C2C=C[C@H](C)[C@H](CC[C@@H]3C[C@@H](O[Si](C)(C)C(C)(C)C)CC(=O)O3)[C@H]2[C@@H](OC(=O)NCCCCCCCCCNc2cccc3c2C(=O)N(C2CCC(=O)NC2=O)C3=O)C1 (stereo partly drawn) [Compound 55, (1S,3R,7S,8S,8aR)-8-(2-((2R,4R)-4-((tert-butyldimethylsilyl)oxy)-6-oxotetrahydro-2H-pyran-2-yl)ethyl)-3,7-dimethyl-1,2,3,7,8,8a-hexahydronaphthalen-1-yl (9-((2-(2,6-dioxopiperidin-3-yl)-1,3-dioxoisoindolin-4-yl)amino)nonyl)carbamate] and C[C@H]1C=C2C=C[C@H](C)[C@H](CC[C@@H]3C[C@@H](O[Si](C)(C)C(C)(C)C)CC(=O)O3)[C@H]2[C@@H](OC(=O)NCCCCCCCCCCNc2cccc3c2C(=O)N(C2CCC(=O)NC2=O)C3=O)C1 (stereo partly drawn) [Compound 56, (1S,3R,7S,8S,8aR)-8-(2-((2R,4R)-4-((tert-butyldimethylsilyl)oxy)-6-oxotetrahydro-2H-pyran-2-yl)ethyl)-3,7-dimethyl-1,2,3,7,8,8a-hexahydronaphthalen-1-yl (10-((2-(2,6-dioxopiperidin-3-yl)-1,3-dioxoisoindolin-4-yl)amino)decyl)carbamate] cannot be ordered by DC50: < 0.05 µM for the first, < 0.05 µM for the second.

C[C@H]1C=C2C=C[C@H](C)[C@H](CC[C@@H]3C[C@@H](O[Si](C)(C)C(C)(C)C)CC(=O)O3)[C@H]2[C@@H](OC(=O)NCCCCCCCCCCCNc2cccc3c2C(=O)N(C2CCC(=O)NC2=O)C3=O)C1 (stereo partly drawn) [Compound 57, (1S,3R,7S,8S,8aR)-8-(2-((2R,4R)-4-((tert-butyldimethylsilyl)oxy)-6-oxotetrahydro-2H-pyran-2-yl)ethyl)-3,7-dimethyl-1,2,3,7,8,8a-hexahydronaphthalen-1-yl (11-((2-(2,6-dioxopiperidin-3-yl)-1,3-dioxoisoindolin-4-yl)amino)undecyl)carbamate] and C[C@H]1C=C2C=C[C@H](C)[C@H](CC[C@@H]3C[C@@H](O)CC(=O)O3)[C@H]2[C@@H](OC(=O)NCCCCCCCCCCCNc2cccc3c2C(=O)N(C2CCC(=O)NC2=O)C3=O)C1 (stereo partly drawn) [Compound 64, (1S,3R,7S,8S,8aR)-8-(2-((2R,4R)-4-hydroxy-6-oxotetrahydro-2H-pyran-2-yl)ethyl)-3,7-dimethyl-1,2,3,7,8,8a-hexahydronaphthalen-1-yl (11-((2-(2,6-dioxopiperidin-3-yl)-1,3-dioxoisoindolin-4-yl)amino)undecyl)carbamate] cannot be ordered by DC50: < 0.05 µM for the first, < 0.05 µM for the second.

C[C@H]1C=C2C=C[C@H](C)[C@H](CC[C@@H]3C[C@@H](O)CC(=O)O3)[C@H]2[C@@H](OC(=O)NCCCCCNc2cccc3c2C(=O)N(C2CCC(=O)NC2=O)C3=O)C1 (stereo partly drawn) [Compound 58, (1S,3R,7S,8S,8aR)-8-(2-((2R,4R)-4-hydroxy-6-oxotetrahydro-2H-pyran-2-yl)ethyl)-3,7-dimethyl-1,2,3,7,8,8a-hexahydronaphthalen-1-yl (5-((2-(2,6-dioxopiperidin-3-yl)-1,3-dioxoisoindolin-4-yl)amino)pentyl)carbamate] and C[C@H]1C=C2C=C[C@H](C)[C@H](CC[C@@H]3C[C@@H](O)CC(=O)O3)[C@H]2[C@@H](OC(=O)NCCCCCCNc2cccc3c2C(=O)N(C2CCC(=O)NC2=O)C3=O)C1 (stereo partly drawn) [Compound 59, (1S,3R,7S,8S,8aR)-8-(2-((2R,4R)-4-hydroxy-6-oxotetrahydro-2H-pyran-2-yl)ethyl)-3,7-dimethyl-1,2,3,7,8,8a-hexahydronaphthalen-1-yl (6-((2-(2,6-dioxopiperidin-3-yl)-1,3-dioxoisoindolin-4-yl)amino)hexyl)carbamate] fall in the same range of DC50: 0.05 to 0.5 µM for the first, 0.05 to 0.5 µM for the second.

Compared with C[C@H]1C=C2C=C[C@H](C)[C@H](CC[C@@H]3C[C@@H](O)CC(=O)O3)[C@H]2[C@@H](OC(=O)NCCCCCCCNc2cccc3c2C(=O)N(C2CCC(=O)NC2=O)C3=O)C1 (stereo partly drawn) [Compound 60, (1S,3R,7S,8S,8aR)-8-(2-((2R,4R)-4-hydroxy-6-oxotetrahydro-2H-pyran-2-yl)ethyl)-3,7-dimethyl-1,2,3,7,8,8a-hexahydronaphthalen-1-yl (7-((2-(2,6-dioxopiperidin-3-yl)-1,3-dioxoisoindolin-4-yl)amino)heptyl)carbamate], C[C@H]1C=C2C=C[C@H](C)[C@H](CC[C@@H]3C[C@@H](O)CC(=O)O3)[C@H]2[C@@H](OC(=O)NCCCCCCCCNc2cccc3c2C(=O)N(C2CCC(=O)NC2=O)C3=O)C1 (stereo partly drawn) [Compound 61, (1S,3R,7S,8S,8aR)-8-(2-((2R,4R)-4-hydroxy-6-oxotetrahydro-2H-pyran-2-yl)ethyl)-3,7-dimethyl-1,2,3,7,8,8a-hexahydronaphthalen-1-yl (8-((2-(2,6-dioxopiperidin-3-yl)-1,3-dioxoisoindolin-4-yl)amino)octyl)carbamate] is lower in DC50: 0.05 to 0.5 µM for the first, < 0.05 µM for the second.

First: C[C@H]1C=C2C=C[C@H](C)[C@H](CC[C@@H]3C[C@@H](O)CC(=O)O3)[C@H]2[C@@H](OC(=O)NCCCCCCCCCNc2cccc3c2C(=O)N(C2CCC(=O)NC2=O)C3=O)C1 (stereo partly drawn) [Compound 62, (1S,3R,7S,8S,8aR)-8-(2-((2R,4R)-4-hydroxy-6-oxotetrahydro-2H-pyran-2-yl)ethyl)-3,7-dimethyl-1,2,3,7,8,8a-hexahydronaphthalen-1-yl (9-((2-(2,6-dioxopiperidin-3-yl)-1,3-dioxoisoindolin-4-yl)amino)nonyl)carbamate]
Second: C[C@H]1C=C2C=C[C@H](C)[C@H](CC[C@@H]3C[C@@H](O)CC(=O)O3)[C@H]2[C@@H](OC(=O)NCCCCCCCCCCNc2cccc3c2C(=O)N(C2CCC(=O)NC2=O)C3=O)C1 (stereo partly drawn) [Compound 63, (1S,3R,7S,8S,8aR)-8-(2-((2R,4R)-4-hydroxy-6-oxotetrahydro-2H-pyran-2-yl)ethyl)-3,7-dimethyl-1,2,3,7,8,8a-hexahydronaphthalen-1-yl (10-((2-(2,6-dioxopiperidin-3-yl)-1,3-dioxoisoindolin-4-yl)amino)decyl)carbamate]
The DC50 of the first is higher: 0.05 to 0.5 µM for the first, < 0.05 µM for the second.

C[C@H]1C=C2C=C[C@H](C)[C@H](CC[C@@H]3C[C@@H](O[Si](C)(C)C(C)(C)C)CC(=O)O3)[C@H]2[C@@H](OC(=O)NCCOCCOCCNc2cccc3c2CN(C2CCC(=O)NC2=O)C3=O)C1 (stereo partly drawn) [Compound 65, (1S,3R,7S,8S,8aR)-8-(2-((2R,4R)-4-((tert-butyldimethylsilyl)oxy)-6-oxotetrahydro-2H-pyran-2-yl)ethyl)-3,7-dimethyl-1,2,3,7,8,8a-hexahydronaphthalen-1-yl (2-(2-(2-((2-(2,6-dioxopiperidin-3-yl)-1-oxoisoindolin-4-yl)amino)ethoxy)ethoxy)ethyl)carbamate] and C[C@H]1C=C2C=C[C@H](C)[C@H](CC[C@@H]3C[C@@H](O)CC(=O)O3)[C@H]2[C@@H](OC(=O)NCCOCCOCCNc2cccc3c2CN(C2CCC(=O)NC2=O)C3=O)C1 (stereo partly drawn) [Compound 66, (1S,3R,7S,8S,8aR)-8-(2-((2R,4R)-4-hydroxy-6-oxotetrahydro-2H-pyran-2-yl)ethyl)-3,7-dimethyl-1,2,3,7,8,8a-hexahydronaphthalen-1-yl (2-(2-(2-((2-(2,6-dioxopiperidin-3-yl)-1-oxoisoindolin-4-yl)amino)ethoxy)ethoxy)ethyl)carbamate] cannot be ordered by DC50: < 0.05 µM for the first, < 0.05 µM for the second.

C[C@H]1C=C2C=C[C@H](C)[C@H](CC[C@@H]3C[C@@H](O[Si](C)(C)C(C)(C)C)CC(=O)O3)[C@H]2[C@@H](OC(=O)NCCOCCOCCNc2ccc3c(c2)C(=O)N(C2CCC(=O)NC2=O)C3=O)C1 (stereo partly drawn) [Compound 67, (1S,3R,7S,8S,8aR)-8-(2-((2R,4R)-4-((tert-butyldimethylsilyl)oxy)-6-oxotetrahydro-2H-pyran-2-yl)ethyl)-3,7-dimethyl-1,2,3,7,8,8a-hexahydronaphthalen-1-yl (2-(2-(2-((2-(2,6-dioxopiperidin-3-yl)-1,3-dioxoisoindolin-5-yl)amino)ethoxy)ethoxy)ethyl)carbamate] and C[C@H]1C=C2C=C[C@H](C)[C@H](CC[C@@H]3C[C@@H](O)CC(=O)O3)[C@H]2[C@@H](OC(=O)NCCOCCOCCNc2ccc3c(c2)C(=O)N(C2CCC(=O)NC2=O)C3=O)C1 (stereo partly drawn) [Compound 68, (1S,3R,7S,8S,8aR)-8-(2-((2R,4R)-4-hydroxy-6-oxotetrahydro-2H-pyran-2-yl)ethyl)-3,7-dimethyl-1,2,3,7,8,8a-hexahydronaphthalen-1-yl (2-(2-(2-((2-(2,6-dioxopiperidin-3-yl)-1,3-dioxoisoindolin-5-yl)amino)ethoxy)ethoxy)ethyl)carbamate] cannot be ordered by DC50: < 0.05 µM for the first, < 0.05 µM for the second.
